How the values were obtained:
HT22 cells [1] = assay: Oxytosis/ferroptosis assay with erastin (Table 2); type: cell-based; details: Mus musculus, HT-22; erastin as inducer; method not given; read-out: Observed EC50 erastin
HT22 cells [2] = assay: Ferroptosis Assay (RSL3-induced cell death, MTT); type: cell-based, mouse; details: Mus musculus, HT-22; HT22 cells, 1 hr pretreatment, 50 nM RSL3, 16 hr, MTT; read-out: Observed EC50 RSL3
Method: Ferroptosis Assay: HT22 cells were seeded at 3,000 cells/well in 96-well tissue culture plates in DMEM plus 10% FBS and 1% antibiotics. After 24 hr of plating, the cells were pretreated with different concentrations of test compounds or a vehicle control for 1 hr followed by coincubation with 50 nM RSL3 to induce the cell death cascade. After 16 hr of treatment, cell viability was measured by the MTT assay. Optical absorbance was measured at 570 nm on a SpectraMax M5 microplate reader. Samples were analyzed in eight to sixteen wells per independent experiment (n=8-16). Results were presented as the percentage of the controls with vehicle alone.

SMILES: C=C(C)c1ccc(C)cc1-c1c(O)cc(CCCCC)cc1O [CBND, 2,6-dihydroxy-4-pentyl-2′-isopropenyl-5′-methyl-1,1′-biphenyl]
- EC50 (HT22 cells [1]): 15.4 µM
- EC50 (HT22 cells [2]): 7.7 µM

SMILES: CCCCCc1cc(O)c2c(c1)OC(C)(CCC=C(C)C)C=C2 (stereo not drawn) [CBC, 2-Methyl-2-(4-methylpent-3-enyl)-7-pentyl-5-chromenol]
- EC50 (HT22 cells [1]): 8.7 µM
- EC50 (HT22 cells [2]): 1.1 µM

SMILES: CCCCCc1cc2c(c(O)c1C(=O)O)[C@@H]1C=C(C)CC[C@H]1C(C)(C)O2 [THCA, (6aR,10aR)-1-Hydroxy-6,6,9-trimethyl-3-pentyl-6a,7,8,10a-tetrahydro-6H-benzo[c]chromene-2-carboxylic acid]
- EC50 (HT22 cells [1]): > 10 µM
- EC50 (HT22 cells [2]): > 10 µM

SMILES: CCCc1cc(OC(C)=O)c2c(c1)OC(C)(C)c1ccc(C)cc1-2 [CBNV-OAc, 6,6,9-trimethyl-3-propyl-6H-benzo[c]chromen-1-yl acetate]
- EC50 (HT22 cells [1]): 4 µM
- EC50 (HT22 cells [2]): 1.6 µM

SMILES: CCCCCCc1cc(O)c2c(c1)OC(C)(C)c1ccc(C)cc1-2 [CBN-C6, 3-hexyl-6,6,9-trimethyl-6H-benzo[c]chromen-1-ol]
- EC50 (HT22 cells [1]): 2 µM
- EC50 (HT22 cells [2]): 0.9 µM

SMILES: CCCc1cc(O)cc2c1-c1cc(C)ccc1C(C)(C)O2 [Abn-CBNV, 6,6,9-trimethyl-1-propyl-6H-benzo[c]chromen-3-ol]
- EC50 (HT22 cells [1]): 9.5 µM
- EC50 (HT22 cells [2]): 4.9 µM

SMILES: Cc1cc(O)c2c(c1)OC(C)(C)c1ccc(C)cc1-2 [CBN-C1, 3-methyl-6,6,9-trimethyl-6H-benzo[c]chromen-1-ol]
- EC50 (HT22 cells [1]): 6.9 µM
- EC50 (HT22 cells [2]): 2.2 µM

SMILES: CCCCCc1cc(O)c2c(c1)OC(C)(C)C1CC=C(C)CC21 (stereo not drawn) [D8-THC, 6,6,9-trimethyl-3-pentyl-6a,7,10,10a-tetrahydro-6H-benzo[c]chromen-1-ol]
- EC50 (HT22 cells [1]): 2.6 µM
- EC50 (HT22 cells [2]): 0.8 µM

SMILES: CCCCCc1cc(OC(C)=O)c2c(c1)OC(C)(C)c1ccc(C)cc1-2 [CBN-OAc, 1-acetoxy-6,6,9-trimethyl-3-pentyl-benzo[c]chromene]
- EC50 (HT22 cells [1]): 1.9 µM
- EC50 (HT22 cells [2]): 1.3 µM

SMILES: CCCCCc1cc(O)c2c(c1)OC(C)(C)C1CCC(C)C=C21 (stereo not drawn) [D10-THC, 6,6,9-trimethyl-3-pentyl-6a,7,8,9-tetrahydro-6H-benzo[c]chromen-1-ol]
- EC50 (HT22 cells [1]): 0.62 µM
- EC50 (HT22 cells [2]): 0.13 µM

SMILES: C=C(C)[C@@H]1CC[C@](C)(O)[C@H]2Oc3cc(CCCCC)cc(O)c3[C@@H]12 [CBE, (5aS,6S,9R,9aR)-6-methyl-3-pentyl-9-prop-1-en-2-yl-7,8,9,9a-tetrahydro-5aH-dibenzofuran-1,6-diol]
- EC50 (HT22 cells [1]): > 10 µM
- EC50 (HT22 cells [2]): > 10 µM

SMILES: C=C(C)C1CCC2(C)CC1c1c(O)cc(CCCCC)cc1O2 (stereo not drawn) [D8(9)-iso-THC, 3,4,5,6-tetrahydro-2-methyl-5-(1-methylethenyl)-9-pentyl-2,6-methano-2H-1-benzoxocin-7-ol]
- EC50 (HT22 cells [1]): 2.1 µM
- EC50 (HT22 cells [2]): 0.33 µM

SMILES: CCCCCCCc1cc(O)c2c(c1)OC(C)(C)c1ccc(C)cc1-2 [CBN-C7, 3-heptyl-6,6,9-trimethyl-6H-benzo[c]chromen-1-ol]
- EC50 (HT22 cells [1]): 3.8 µM
- EC50 (HT22 cells [2]): 2 µM

SMILES: CCCCCc1cc(O)c(C/C=C(\C)CCC=C(C)C)c(O)c1C(=O)O [CBGA, 3-[(2E)-3,7-Dimethylocta-2,6-dien-1-yl]-2,4-dihydroxy-6-pentylbenzoic acid]
- EC50 (HT22 cells [1]): > 10 µM
- EC50 (HT22 cells [2]): > 10 µM

SMILES: CCCCCc1cc(O)c2c(c1)OC(C)(C)C1CCC(C)=CC21 (stereo not drawn) [D9-THC, 6,6,9-trimethyl-3-pentyl-6a,7,8,10a-tetrahydro-6H-benzo[c]chromen-1-ol]
- EC50 (HT22 cells [1]): 9.4 µM
- EC50 (HT22 cells [2]): 4.1 µM

SMILES: C=C(C)[C@@H]1CCC(C)=C[C@H]1c1c(O)cc(CCCCC)cc1O [CBD, 2-[(1R,6R)-6-Isopropenyl-3-methylcyclohex-2-en-1-yl]-5-pentylbenzene-1,3-diol]
- EC50 (HT22 cells [1]): 8.8 µM
- EC50 (HT22 cells [2]): 0.86 µM

SMILES: C=C(C)[C@@H]1CCC(C)=C[C@H]1c1c(O)cc(O)cc1CCCCC [Abn-CBD, 4-[(1R,6R)-3-methyl-6-(1-methylethenyl)-2-cyclohexen-1-yl]-5-pentyl-1,3-benzenediol]
- EC50 (HT22 cells [1]): 8 µM
- EC50 (HT22 cells [2]): 3.9 µM

SMILES: CCCCCc1cc(O)c2c(c1)oc1c(C)ccc(C(C)C)c12 [CBF, 5-isopropyl-8-methyl-2-pentyl-9-oxa-4-fluorenol]
- EC50 (HT22 cells [1]): 0.31 µM
- EC50 (HT22 cells [2]): 0.15 µM

— patent publication US20240261302A1, “METHODS OF TREATING NEURODEGENERATIVE DISEASES OR CONDITIONS” (FloraScience Inc., priority 2023, published 2024)
